Data on 5 compounds can be found in ChEMBL document CHEMBL1201862, “PubChem BioAssay data set” (2004).

Experiment [1] deals with Oxytocin receptor (Homo sapiens, UniProt P30559). Nature of the experiment: Fluorescence-based cell-based high throughput dose response assay for agonists of the Oxytocin Receptor (OXTR). [Related pubchem assays: 2435 (Primary screen (OXTR agonists in singlicate)), 434991 (Counterscreen (V1R agonists in triplicate)), 2482 (Summary (OXTR agonists)), 434963 (Confirmation screen (OXTR agonists in triplicate))]. It counts as functional. (In general: Counterscreens check selectivity or assay interference.)
Oxytocin receptor, sequence (P30559 whole entry): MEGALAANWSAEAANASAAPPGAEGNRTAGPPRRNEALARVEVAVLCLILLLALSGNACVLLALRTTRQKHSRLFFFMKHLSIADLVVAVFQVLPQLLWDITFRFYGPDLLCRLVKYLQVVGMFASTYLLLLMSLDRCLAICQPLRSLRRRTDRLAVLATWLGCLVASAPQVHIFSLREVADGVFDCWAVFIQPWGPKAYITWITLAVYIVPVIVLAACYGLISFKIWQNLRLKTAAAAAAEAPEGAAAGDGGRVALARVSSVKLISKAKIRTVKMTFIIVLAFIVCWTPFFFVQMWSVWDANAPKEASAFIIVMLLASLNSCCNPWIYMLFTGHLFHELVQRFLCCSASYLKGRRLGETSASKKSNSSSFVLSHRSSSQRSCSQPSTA

Experiment [2] in a line: HEp-2 cell cytotoxicity, dose response, cytotoxicity control for RSV inhibitor project, HTS (AID 2410). It counts as functional. To be noted: human respiratory syncytial virus.
Experiment [3] addresses T1, Corticotropin-releasing factor receptor 2/Corticotropin-releasing factor-binding protein (Homo sapiens, UniProt P24387+Q13324).
T1 sequence (Q13324 whole entry): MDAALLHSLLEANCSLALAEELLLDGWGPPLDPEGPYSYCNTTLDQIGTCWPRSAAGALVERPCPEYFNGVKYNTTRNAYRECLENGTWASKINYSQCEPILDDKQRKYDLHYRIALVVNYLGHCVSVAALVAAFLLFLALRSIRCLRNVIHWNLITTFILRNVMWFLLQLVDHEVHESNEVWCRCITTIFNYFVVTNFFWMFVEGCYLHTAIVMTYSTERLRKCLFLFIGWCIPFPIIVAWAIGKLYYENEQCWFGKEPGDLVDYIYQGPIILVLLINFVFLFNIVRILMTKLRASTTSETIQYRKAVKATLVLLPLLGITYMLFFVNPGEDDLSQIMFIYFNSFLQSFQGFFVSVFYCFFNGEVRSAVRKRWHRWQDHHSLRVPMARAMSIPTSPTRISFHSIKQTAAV
T1 sequence (P24387 whole entry): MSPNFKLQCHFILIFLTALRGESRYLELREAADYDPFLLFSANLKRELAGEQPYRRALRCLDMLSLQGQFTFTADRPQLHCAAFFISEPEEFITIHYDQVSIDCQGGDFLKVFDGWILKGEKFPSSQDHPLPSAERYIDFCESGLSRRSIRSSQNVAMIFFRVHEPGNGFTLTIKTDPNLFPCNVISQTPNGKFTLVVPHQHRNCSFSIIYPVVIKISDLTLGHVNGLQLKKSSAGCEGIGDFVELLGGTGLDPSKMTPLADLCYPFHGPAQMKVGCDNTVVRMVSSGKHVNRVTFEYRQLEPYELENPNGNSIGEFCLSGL
As to the kind of experiment: activators of CRF receptor 2 with binding protein – uHTS hits, confirmation (AID 602473). In kind it is functional. As to conditions: read-out: EC50_Mean.

Experiment [4] is described as follows: Vero cell cytotoxicity, dose response, cytotoxicity control for Vif-APOBEC3G degradation inhibitor project, Vero cells (AID 1117358). As to conditions: Human immunodeficiency virus 1, Vero. It counts as functional.
For experiment [5], the target named is Vasopressin V1a receptor (Homo sapiens, UniProt P37288). As to the kind of experiment: Counterscreen for Oxytocin Receptor (OXTR) agonists: Fluorescence-based cell-based high throughput dose response assay to identify agonists of the vasopressin 1 receptor (V1R). [Related pubchem assays: 2435 (Primary screen (OXTR agonists in singlicate)), 434991 (Counterscreen (V1R agonists in triplicate)), 2482 (Summary (OXTR agonists)) …. It counts as functional.
Vasopressin V1a receptor, sequence (P37288 whole entry): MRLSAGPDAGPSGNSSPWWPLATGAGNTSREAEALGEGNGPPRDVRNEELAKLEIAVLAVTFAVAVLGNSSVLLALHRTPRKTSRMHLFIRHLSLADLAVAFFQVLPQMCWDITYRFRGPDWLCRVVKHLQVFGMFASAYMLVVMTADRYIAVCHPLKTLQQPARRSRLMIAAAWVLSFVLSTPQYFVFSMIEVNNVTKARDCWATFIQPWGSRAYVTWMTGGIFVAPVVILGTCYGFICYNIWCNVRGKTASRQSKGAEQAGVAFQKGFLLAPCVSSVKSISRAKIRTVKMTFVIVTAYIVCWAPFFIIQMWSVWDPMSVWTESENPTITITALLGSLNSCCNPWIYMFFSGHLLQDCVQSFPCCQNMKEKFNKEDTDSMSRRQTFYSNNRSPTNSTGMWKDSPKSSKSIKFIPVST

In experiment [6] the target is Serine/threonine-protein phosphatase PP1-alpha catalytic subunit (Homo sapiens, UniProt P62136). Nature of the experiment: PP1 phosphatase inhibitors, dose response, biochemical, fluorescence (AID 2403).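 Note: phosphatase turnover of OMFP into fluorescent 3-O-methylfluorescein.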
Serine/threonine-protein phosphatase PP1-alpha catalytic subunit, sequence (P62136 whole entry): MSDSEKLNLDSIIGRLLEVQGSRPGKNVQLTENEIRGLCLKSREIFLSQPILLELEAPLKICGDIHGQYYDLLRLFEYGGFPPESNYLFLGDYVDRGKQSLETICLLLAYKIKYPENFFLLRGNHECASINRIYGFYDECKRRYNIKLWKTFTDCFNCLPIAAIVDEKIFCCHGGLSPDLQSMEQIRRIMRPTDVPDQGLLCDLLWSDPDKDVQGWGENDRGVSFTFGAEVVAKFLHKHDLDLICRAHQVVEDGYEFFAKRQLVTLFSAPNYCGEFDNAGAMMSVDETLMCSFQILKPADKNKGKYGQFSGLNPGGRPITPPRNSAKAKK
For experiment [7], the target named is Nonstructural protein 1 (Influenza A virus, UniProt Q194T2). It counts as functional, Influenza A virus (A/California/07/2009(H1N1)).
Nonstructural protein 1, sequence (Q194T2 whole entry): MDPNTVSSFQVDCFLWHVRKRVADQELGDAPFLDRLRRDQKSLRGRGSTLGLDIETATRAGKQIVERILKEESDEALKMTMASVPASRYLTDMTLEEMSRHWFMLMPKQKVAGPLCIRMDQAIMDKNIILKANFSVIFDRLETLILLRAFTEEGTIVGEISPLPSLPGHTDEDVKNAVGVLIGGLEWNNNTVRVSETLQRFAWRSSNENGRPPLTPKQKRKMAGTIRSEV
The target in experiment [8] is T2, Serine/threonine-protein phosphatase (Homo sapiens, UniProt Q9BPW0).
T2 sequence (Q9BPW0 whole entry): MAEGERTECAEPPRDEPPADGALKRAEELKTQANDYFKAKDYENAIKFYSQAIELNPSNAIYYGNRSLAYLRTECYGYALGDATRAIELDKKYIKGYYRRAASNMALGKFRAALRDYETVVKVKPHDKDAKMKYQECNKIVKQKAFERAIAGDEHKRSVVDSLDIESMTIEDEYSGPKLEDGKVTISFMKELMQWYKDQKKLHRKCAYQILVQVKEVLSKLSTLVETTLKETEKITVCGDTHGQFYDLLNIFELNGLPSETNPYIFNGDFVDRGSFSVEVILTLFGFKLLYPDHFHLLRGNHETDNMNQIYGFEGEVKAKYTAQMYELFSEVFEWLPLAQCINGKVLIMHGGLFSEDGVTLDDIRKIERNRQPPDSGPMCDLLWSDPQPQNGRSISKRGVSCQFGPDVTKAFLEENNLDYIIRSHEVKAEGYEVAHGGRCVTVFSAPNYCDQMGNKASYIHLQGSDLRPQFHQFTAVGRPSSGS
As to the kind of experiment: Counterscreen for inhibitors of PP1: fluorescence-based biochemical high throughput dose response assay to identify inhibitors of Protein Phosphatase 5 (PP5). [Related pubchem assays: 2034 (Summary (PP5 inhibitors)), 1987 (PP5 inhibitors in singlate), 2235 (PP1 inhibitors in singlate)].

Experiment [9] deals with Wee1-like protein kinase (Homo sapiens, UniProt P30291). Nature of the experiment: Dose Response Cell-based Assay for Inhibitors of Wee1 Degradation. [Related pubchem assays: 1410, 1321 ]. It counts as functional.
Wee1-like protein kinase, sequence (P30291 whole entry): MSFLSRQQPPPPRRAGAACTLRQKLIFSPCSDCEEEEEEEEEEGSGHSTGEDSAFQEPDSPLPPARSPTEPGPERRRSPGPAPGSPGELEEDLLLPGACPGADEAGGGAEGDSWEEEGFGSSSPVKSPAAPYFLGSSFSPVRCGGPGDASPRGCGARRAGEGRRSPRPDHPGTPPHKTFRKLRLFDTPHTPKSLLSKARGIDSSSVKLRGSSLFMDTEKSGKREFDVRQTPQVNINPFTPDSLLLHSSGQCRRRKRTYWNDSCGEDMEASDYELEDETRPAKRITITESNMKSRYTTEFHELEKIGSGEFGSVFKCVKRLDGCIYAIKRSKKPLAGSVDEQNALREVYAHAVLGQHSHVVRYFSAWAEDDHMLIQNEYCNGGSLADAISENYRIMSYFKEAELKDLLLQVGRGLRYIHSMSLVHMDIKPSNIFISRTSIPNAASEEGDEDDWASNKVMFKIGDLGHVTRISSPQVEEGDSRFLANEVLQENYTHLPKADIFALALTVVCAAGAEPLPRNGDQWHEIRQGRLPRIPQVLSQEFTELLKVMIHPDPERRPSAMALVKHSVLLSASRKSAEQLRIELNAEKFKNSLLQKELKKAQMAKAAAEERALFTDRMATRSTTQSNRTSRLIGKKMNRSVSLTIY
The nature of experiment [10]: cytotoxicity in HEK-293T cells, dose response, cytotoxicity control for TCR NF-kB inhibitor project, luminescence, T-cell screen hits (AID 489026).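 Note: cells exposed to compound about 14 hours before the viability readout.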 In kind it is functional, cell-based.
In experiment [11] the target is G2/mitotic-specific cyclin-B1 (Homo sapiens, UniProt P14635). As to the kind of experiment: Counterscreen assay for inhibitors of Wee1 degradation: dose response cell-based assay to identify inhibitors of cyclin B degradation. [Related pubchem assays: 1410, 1321 ]. It counts as functional.
G2/mitotic-specific cyclin-B1, sequence (P14635 whole entry): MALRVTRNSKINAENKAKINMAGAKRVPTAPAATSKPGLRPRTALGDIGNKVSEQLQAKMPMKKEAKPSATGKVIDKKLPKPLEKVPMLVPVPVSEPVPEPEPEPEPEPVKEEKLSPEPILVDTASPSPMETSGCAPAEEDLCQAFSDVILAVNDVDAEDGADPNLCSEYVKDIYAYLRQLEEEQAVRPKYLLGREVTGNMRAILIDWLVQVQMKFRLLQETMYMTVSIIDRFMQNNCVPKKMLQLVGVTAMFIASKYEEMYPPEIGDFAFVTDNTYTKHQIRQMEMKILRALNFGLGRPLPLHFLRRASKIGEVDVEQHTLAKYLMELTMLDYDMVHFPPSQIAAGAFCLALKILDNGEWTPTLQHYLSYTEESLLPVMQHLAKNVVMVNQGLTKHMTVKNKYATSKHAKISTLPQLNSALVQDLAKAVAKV
Experiment [12] is described as follows: THP-1 cell cytotoxicity, dose response, cytotoxicity control for non-replicating M. tuberculosis project (AID 489025). It counts as functional.
Experiment [13] can be described thus: Vero E6 cell cytotoxicity, dose response, cytotoxicity control for non-replicating M. tuberculosis project, secondary assay (AID 492998). In kind it is functional, VeroE6. To be noted: Vero C1008.
Experiment [14] can be described thus: cells. It counts as functional.
The target of experiment [15] is T3, Cysteine protease ATG4B (Homo sapiens, UniProt Q9Y4P1).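 Note: Fluorescence-based dose-response confirmation assay measuring inhibition of ATG4B activity.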
T3 sequence (Q9Y4P1 whole entry): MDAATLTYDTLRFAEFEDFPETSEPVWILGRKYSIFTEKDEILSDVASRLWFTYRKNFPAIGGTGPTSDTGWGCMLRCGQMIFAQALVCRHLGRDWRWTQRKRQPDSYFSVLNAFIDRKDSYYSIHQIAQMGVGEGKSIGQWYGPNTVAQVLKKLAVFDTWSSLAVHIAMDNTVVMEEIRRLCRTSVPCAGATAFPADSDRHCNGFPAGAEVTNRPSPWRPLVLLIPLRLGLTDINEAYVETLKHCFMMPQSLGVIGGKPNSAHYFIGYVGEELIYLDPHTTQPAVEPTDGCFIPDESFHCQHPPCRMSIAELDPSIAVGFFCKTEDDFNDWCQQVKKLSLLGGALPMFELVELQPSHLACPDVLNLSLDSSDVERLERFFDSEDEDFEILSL
It counts as functional.

Experiment [16] has as its target T4, Aminopeptidase N (Plasmodium falciparum FcB1/Columbia, UniProt O96935).
T4 sequence (O96935 whole entry): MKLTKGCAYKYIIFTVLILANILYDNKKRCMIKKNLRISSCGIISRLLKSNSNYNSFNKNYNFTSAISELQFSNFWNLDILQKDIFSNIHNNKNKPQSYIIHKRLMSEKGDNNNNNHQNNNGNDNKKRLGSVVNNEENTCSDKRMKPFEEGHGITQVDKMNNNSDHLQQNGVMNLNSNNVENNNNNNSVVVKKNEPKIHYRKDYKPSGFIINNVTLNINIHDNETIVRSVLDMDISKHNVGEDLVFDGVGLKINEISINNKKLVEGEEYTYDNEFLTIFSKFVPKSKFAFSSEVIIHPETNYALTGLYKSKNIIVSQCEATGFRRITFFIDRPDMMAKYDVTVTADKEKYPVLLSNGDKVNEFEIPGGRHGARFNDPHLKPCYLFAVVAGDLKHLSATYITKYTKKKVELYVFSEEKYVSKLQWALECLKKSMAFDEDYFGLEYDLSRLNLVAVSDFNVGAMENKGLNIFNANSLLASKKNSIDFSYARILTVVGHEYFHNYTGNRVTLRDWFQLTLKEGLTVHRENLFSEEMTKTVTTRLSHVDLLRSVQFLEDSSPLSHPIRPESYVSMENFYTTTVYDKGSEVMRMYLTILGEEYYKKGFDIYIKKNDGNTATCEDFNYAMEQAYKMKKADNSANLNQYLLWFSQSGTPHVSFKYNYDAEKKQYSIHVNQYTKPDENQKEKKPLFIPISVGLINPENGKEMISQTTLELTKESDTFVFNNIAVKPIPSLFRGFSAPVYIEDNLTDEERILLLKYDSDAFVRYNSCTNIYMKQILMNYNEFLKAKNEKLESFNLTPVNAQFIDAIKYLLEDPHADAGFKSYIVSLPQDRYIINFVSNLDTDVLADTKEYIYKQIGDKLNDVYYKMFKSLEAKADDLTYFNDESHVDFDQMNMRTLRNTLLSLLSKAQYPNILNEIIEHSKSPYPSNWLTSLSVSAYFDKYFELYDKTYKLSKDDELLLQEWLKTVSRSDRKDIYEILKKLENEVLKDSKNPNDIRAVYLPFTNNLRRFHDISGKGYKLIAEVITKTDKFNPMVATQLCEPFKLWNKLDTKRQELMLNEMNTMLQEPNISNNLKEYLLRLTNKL
Nature of the experiment: P. falciparum M1AAP inhibitors, biochemical, fluorogenic H-Leu-NHMec substrate, 1536-well (AID 1445). Also on record: species or system Plasmodium falciparum 3D7, 3D7.

Experiment [17] addresses Phospholipase A2 (Homo sapiens, UniProt P04054). In kind it is functional.
Experiment [18] in a line: CRF-BP/CRF-R2 complex antagonists, dose response, cell-based, uHTS hits, 384-well (AID 651639). In kind it is functional, Homo sapiens. To be noted: read-out: IC50_Mean.
For experiment [19], the target named is T1, Corticotropin-releasing factor receptor 2/Corticotropin-releasing factor-binding protein. As to the kind of experiment: Dose Response confirmation of uHTS hits for small molecule antagonists of the CRF-binding protein and CRF-R2 receptor complex. In kind it is functional. To be noted: read-out: IC50_Mean.
Experiment [20] in a line: HIV-1 Env-mediated cell fusion inhibitors, dose response, CCR5-tropic Env (AID 2279). It counts as functional.
Experiment [21] deals with NS3 (Hepatitis C virus, UniProt A3EZJ3). As to the kind of experiment: PubChem AID 2173. On the set-up: species or system Hepacivirus hominis.
NS3, sequence (A3EZJ3 whole entry): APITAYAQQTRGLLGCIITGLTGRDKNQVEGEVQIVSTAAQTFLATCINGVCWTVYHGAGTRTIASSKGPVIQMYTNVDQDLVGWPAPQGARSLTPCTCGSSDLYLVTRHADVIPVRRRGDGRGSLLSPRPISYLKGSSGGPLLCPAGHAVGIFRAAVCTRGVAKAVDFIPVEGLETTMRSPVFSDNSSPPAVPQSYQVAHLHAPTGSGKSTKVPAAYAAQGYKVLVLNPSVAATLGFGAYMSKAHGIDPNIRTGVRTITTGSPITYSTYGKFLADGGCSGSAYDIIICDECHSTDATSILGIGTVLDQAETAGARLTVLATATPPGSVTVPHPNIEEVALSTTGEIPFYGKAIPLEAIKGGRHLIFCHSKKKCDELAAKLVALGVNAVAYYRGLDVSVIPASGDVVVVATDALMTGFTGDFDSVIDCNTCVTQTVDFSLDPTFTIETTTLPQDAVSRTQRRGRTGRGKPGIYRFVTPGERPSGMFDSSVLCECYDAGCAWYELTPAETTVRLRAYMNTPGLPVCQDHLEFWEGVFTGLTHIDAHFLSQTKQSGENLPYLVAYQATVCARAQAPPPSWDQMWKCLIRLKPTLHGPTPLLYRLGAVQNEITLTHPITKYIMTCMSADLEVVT
A short description of experiment [22]: M. tuberculosis growth inhibition, HTS (AID 449762). In kind it is functional.
The target of experiment [23] is T5, Heat shock factor protein 1 (Mus musculus, UniProt P38532).
T5 sequence (P38532 whole entry): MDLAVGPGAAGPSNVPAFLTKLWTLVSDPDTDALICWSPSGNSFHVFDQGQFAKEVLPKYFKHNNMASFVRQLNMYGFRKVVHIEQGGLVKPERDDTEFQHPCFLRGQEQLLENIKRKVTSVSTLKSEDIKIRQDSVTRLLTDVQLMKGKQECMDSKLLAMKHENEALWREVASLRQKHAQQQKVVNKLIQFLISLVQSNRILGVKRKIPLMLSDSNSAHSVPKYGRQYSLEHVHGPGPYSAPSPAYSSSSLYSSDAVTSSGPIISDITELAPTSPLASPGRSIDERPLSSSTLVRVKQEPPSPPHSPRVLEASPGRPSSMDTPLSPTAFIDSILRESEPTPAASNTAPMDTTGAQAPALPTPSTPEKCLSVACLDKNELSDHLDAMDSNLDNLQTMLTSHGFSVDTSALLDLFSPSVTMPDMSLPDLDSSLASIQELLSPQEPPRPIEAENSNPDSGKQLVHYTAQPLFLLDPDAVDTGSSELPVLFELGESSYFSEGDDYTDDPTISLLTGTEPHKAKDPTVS
Nature of the experiment: HSF1 potentiators in luciferase reporter cells, confirmation, cell-based, NIH3T3, luminescence, dose retest (AID 435004).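 Note: stress induced by proteasome inhibitor MG132 added 30 min after compound; luciferase reporter driven by HSF1 response element in NIH3T3 cells; actives raise luminescence as potentiators of the MG132 stress response.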 It counts as functional.

Molecules are shown by their SMILES. Activity calls are given as the source filed them.

Phospholipase A2, sequence (P04054 whole entry): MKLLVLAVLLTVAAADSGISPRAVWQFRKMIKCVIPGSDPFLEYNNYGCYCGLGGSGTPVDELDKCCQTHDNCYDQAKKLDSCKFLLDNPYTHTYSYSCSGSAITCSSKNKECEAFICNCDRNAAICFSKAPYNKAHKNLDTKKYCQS

In the case of `Cc1[nH]c2ccccc2c1C(=O)CN1C(=O)NC(C)(c2ccc(Cl)cc2Cl)C1=O` (centres undefined), the EC50 in experiment [1] was > 29.9 µM (not active); in experiment [3], 7.59 µM (active); in [5], > 29.9 µM (not active). In addition, the CC50 – broadly, the concentration that lowers cell viability or growth by half – in experiment [2] was 13.9 µM (active); in experiment [4], 38.2 µM (active).
For `O=C(Nc1nc(-c2ccccn2)cs1)C1CC(=O)N(c2ccc3c(c2)OCCO3)C1` (centres undefined), the figures for the IC50 in [6], in experiment [7] and in experiment [8] were 5.98 µM (active), 13.5 µM (active) and > 67 µM (not active), respectively.
For `O=C(N=Nc1c(O)[nH]c2ccc(Br)cc12)c1ccccc1-n1cccc1`, the EC50 in experiment [9] and in experiment [11] was > 49.7 µM (not active) in each case. Further, the IC50 is > 80 µM (inactive) in experiment [10] and > 50 µM (active) in [14]. Moreover, the 50% cytotoxic concentration (CC50) in experiment [12] is 1.15 µM (active); in [13], 4.28 µM (active).
Regarding `Cc1ccc(N2C(=O)/C(=C\Nc3ccccc3-c3nnc(S)nc3O)c3ccccc3C2=O)c(C)c1`, the IC50 in [15] was 14 µM (active); in experiment [16], 27.4 µM (active); in experiment [17] it was 10 µM (active); in experiment [18] it was > 20 µM (inactive); in [19], 3.83 µM (active); in [20], 39.9 µM (active). In addition, the EC50 in [3] is > 53 µM (inactive).
On to `COc1ccccc1/C=C/C1=NC(=C\C=C/c2ccccc2)/C(=O)O1`, for which the figures for the IC50 in experiment [21] and in [22] were 24.1 µM (not active) and > 100 µM (active), respectively. Further, the EC50 in experiment [23] is > 260 µM (inactive).
